Results published in ChEMBL document CHEMBL1158144, “Cacalol derivatives from Roldana angulifolia” (J Nat Prod, 2006).

Legend:
Assay type in all cases: functional, cell-based
U-251 = test: Cytotoxicity against human U251 cells
PC-3 = test: Cytotoxicity against human PC-3 cells
K562 = test: Cytotoxicity against human K-562 cells
HCT-15 = test: Cytotoxicity against human HCT-15 cells
MCF7 = test: Cytotoxicity against human MCF7 cells
SK-LU-1 = test: Cytotoxicity against human SKLU1 cells

Measured: IC50

COc1c2c(c(C=O)c3c(COC(C)=O)coc13)[C@@H](C)CC=C2
> 10 µM: U-251 | PC-3 | K562 | HCT-15 | MCF7 | SK-LU-1

COc1c2c3c(c4c(COC(C)=O)coc14)C(=O)OC[C@H]3CC=C2 [ANGULIFOLIDE]
> 10 µM: U-251 | PC-3 | K562 | HCT-15 | MCF7 | SK-LU-1

COc1c2c(c(C=O)c3c(CO)coc13)[C@@H](C)CC=C2
> 10 µM: U-251 | PC-3 | K562 | HCT-15 | MCF7 | SK-LU-1
